The nature of data set [1]: Influx of fluorophore or ssDNA into GUVs with and without printed pore, confocal imaging. Type of data set: physicochemical. The note with it: for influx into GUV containing a printed pore: GUV with printed hydrogel pore. The protocol: Representative confocal images of two adjacent GUVs (red, λex=488 nm) in the xy-(left) and an xz-plane (right, as indicated by white dashed line) are shown in FIG. 11c. […] The scalebar in the image of the xy-plane represents 20 μm.
Further representative confocal images of two adjacent GUVs, similar as described in FIG. 11c, are shown in FIG. 11d. […] The scalebar in the image of the xy-plane represents 20 μm.
Next, it was tested if the pores can transport larger and charged molecular cargo.
0.01 mg ml-1 Rhodamine B acrylate were added to the final solution for fluorescence microscopy.

Data set [2] in a line: Membrane permeability via fraction of successful printing attempts inside GUVs over time. The settings on record: not told.
Description: The membrane permeability was determined by adding the respective components after incubation of the GUVs with the remaining components of the photoresist and quantifying the fraction of successful printing attempts, Nprint/Ntot, inside the GUVs over time (n=30 for each condition and time point). An exponential fit (black line) was used to determine the point in time of 50% success rate.
The resist was polymerized inside the GUV by two-photon 3D laser printing. […] The printing success rate was used as an indirect way to determine the membrane permeability of the non-fluorescent components. For this purpose, PEGDA or LAP was added to GUVs that were pre-incubated with the other resist components. Subsequently, the fraction of successful printing attempts, Npol/Ntot, was quantified for 30 GUVs per time point over the course of up to 100 minutes.
We use the interdependence of the permeability and the concentration inside of a GUV Cin [1] to determine the membrane permeability P via printing attempts:
where R is the GUV radius, Cout the concentration outside of the GUV and t the time.

{Atto647N} = Atto 647N fluorescent dye

In the case of “5′-Atto 647N TTTTTTAATTTTT 3′ (DNA, 5' {Atto647N}, backbone not given here) [13 base-long single-stranded DNA, 13 base-long single-stranded DNA labelled with Atto647N]”, the results for the “influx into GUV containing a printed pore” value in data set [1] and in data set [1] (listed as single-stranded DNA) were “can diffuse into the GUV across the printed pore” and “influx”, respectively. The “influx into adjacent GUV without printed pore” value in data set [1] (GUV without pore) is recorded as “does not show DNA import”.

As for `Cc1cc(C)c(C(=O)P(=O)([O-])c2ccccc2)c(C)c1.[Li+]` [LAP, Lithium phenyl-2,4,6-trimethylbenzoylphosphinate], the Papp (commonly the rate of passage across a membrane or cell layer, normalised by area and donor concentration) at 12 mg mL-1 in data set [2] is 0.0987 ± 0.0325 ×10⁻⁶ cm/s.

The values are drawn from patent publication US20240402608A1, “METHOD FOR NON-INVASIVE PRODUCTION OF DEFINED STRUCTURES INSIDE COMPARTMENTS AND COMPARTMENT” (MAX-PLANCK-GESELLSCHAFT ZUR FÖRDERUNG DER WISSENSCHAFTEN …, priority 2021, published 2024).
